# Reference: patent US12522595B2, “Bicyclic ether O-glycoprotein-2-acetamido-2-deoxy-3-D-glucopyranosidase inhibitors” (BIOGEN MA INC., priority 2019, dated 2026)
# Target: T1, Recombinant full length human OGA enzyme (Homo sapiens, UniProt O60502)
# T1 construct: Recombinant full length human OGA enzyme was purchased from Origene; purchased Origene
# T1 sequence (O60502 1-916): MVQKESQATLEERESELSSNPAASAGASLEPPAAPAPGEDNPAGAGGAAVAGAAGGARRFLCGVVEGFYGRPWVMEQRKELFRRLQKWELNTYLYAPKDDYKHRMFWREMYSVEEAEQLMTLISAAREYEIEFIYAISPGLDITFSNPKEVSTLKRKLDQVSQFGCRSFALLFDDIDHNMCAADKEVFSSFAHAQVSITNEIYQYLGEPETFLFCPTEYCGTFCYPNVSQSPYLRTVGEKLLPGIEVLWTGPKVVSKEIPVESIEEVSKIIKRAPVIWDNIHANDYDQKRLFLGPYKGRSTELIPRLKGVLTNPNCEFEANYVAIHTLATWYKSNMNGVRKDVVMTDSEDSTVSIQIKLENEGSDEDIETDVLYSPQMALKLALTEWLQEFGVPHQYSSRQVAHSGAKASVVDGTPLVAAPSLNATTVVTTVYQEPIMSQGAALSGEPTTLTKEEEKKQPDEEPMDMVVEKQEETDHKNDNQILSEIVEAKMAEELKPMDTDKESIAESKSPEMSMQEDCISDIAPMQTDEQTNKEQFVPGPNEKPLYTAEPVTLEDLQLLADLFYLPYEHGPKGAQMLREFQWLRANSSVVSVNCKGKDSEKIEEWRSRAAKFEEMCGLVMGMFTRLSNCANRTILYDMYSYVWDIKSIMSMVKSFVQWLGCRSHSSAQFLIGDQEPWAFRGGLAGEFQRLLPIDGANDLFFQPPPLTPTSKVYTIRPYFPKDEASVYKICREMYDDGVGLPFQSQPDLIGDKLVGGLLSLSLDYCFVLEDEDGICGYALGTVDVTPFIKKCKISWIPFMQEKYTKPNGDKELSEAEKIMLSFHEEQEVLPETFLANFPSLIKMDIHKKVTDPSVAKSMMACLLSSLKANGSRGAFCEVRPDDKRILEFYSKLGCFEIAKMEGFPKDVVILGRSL
# Assay: OGA enzyme inhibition biochemical assay
# Settings: 1 nM OGA, 100 μM 4-MUGlcNAc (Km), pH 6.4, 90 minutes at room temperature, 10-point dose-response from 20 μM
# Method: N-(5-(((2S,4R)-4-([1,2,4]triazolo[4,3-a]pyrazin-3-yloxy)-2-methylpyrrolidin-1-yl)methyl)-4-fluorothiazol-2-yl)acetamide: The title compound was prepared in an analogous manner as Example 172 from 3-bromo-[1,2,4]triazolo[4,3-a]pyrazine. LCMS (ESI): [M+H] 392. ^1H NMR (600 MHz, CHLOROFORM-d) δ 10.75 (br s, 1H), 9.04 (s, 1H), 9.03 (s, 1H), 7.24 (s, 1H), 4.99-5.06 (m, 1H), 4.01 (d, J=14.49 Hz, 1H), 3.64 (d, J=14.67 Hz, 1H), 3.40 (d, J=11.55 Hz, 1H), 2.75 (dd, J=5.78, 11.46 Hz, 1H), 2.61-2.72 (m, 2H), 2.32 (s, 4H), 1.84-1.92 (m, 1H), 1.30 (d, J=5.87 Hz, 4H). ^19F NMR (565 MHz, CHLOROFORM-d) 6-115.92 (br s, 1F). OGA Enzyme Inhibition Biochemical Assay
# Recombinant full length human OGA enzyme was purchased from Origene. 4-MUGlCNAc substrate was purchased from Sigma. All other reagents were purchased from Sigma or Fisher. Assay buffer consists of the McIlvaine buffer system, pH 6.4 (0.2M Na2HPO4 mixed with 0.1M citric acid) and 0.01% BSA. Reactions consist of 1 nM OGA, 100 μM 4-MUGlcNAc (Km), and compound in a final volume of 10 μl. Reactions were incubated for 90 minutes at room temperature and quenched with 40 μl of 3M glycine, pH 10 and read on a Perkin Elmer Envision plate reader (Ex: 355 nm/Em: 460 nm). Compounds were tested with a 10-point dose-response starting from 20 μM with a 4-fold dilution. Data, as presented in Table 1 below, was fit using GraphPad Prism using a 4-parameter fit with variable slope.
row,SMILES,IC50
1,"CC(=O)Nc1ncc(CN2C[C@H](Oc3ccnc4c3CCCC4)C[C@@H]2C)s1 [Example 33, N-(5-(((2S,4R)-2-methyl-4-((5,6,7,8-tetrahydroquinolin-4-yl)oxy)pyrrolidin-1-yl)methyl)thiazol-2-yl)acetamide]",16 nM
2,"CC(=O)Nc1ncc(CN2C[C@H](Oc3cccc4nn(C)cc34)C[C@@H]2C)s1 [Example 83, N-(5-(((2S,4R)-2-methyl-4-((2-methyl-2H-indazol-4-yl)oxy)pyrrolidin-1-yl)methyl)thiazol-2-yl)acetamide]",1.1 nM
3,"CC(=O)Nc1ncc(CN2C[C@H](Oc3nc4ccccc4cc3C#N)C[C@@H]2C)s1 [Example 37, N-(5-(((2S,4R)-4-((3-cyanoquinolin-2-yl)oxy)-2-methylpyrrolidin-1-yl)methyl)thiazol-2-yl)acetamide]",16 nM
4,"CC(=O)Nc1ncc(CN2C[C@H](Oc3cccn4ccnc34)C[C@@H]2C)s1 [Example 156, N-(5-(((2S,4R)-4-(imidazo[1,2-a]pyridin-8-yloxy)-2-methylpyrrolidin-1-yl)methyl)thiazol-2-yl)acetamide]",< 1 nM
5,"CC(=O)Nc1nc(F)c(CN2C[C@H](Oc3ncnc4occc34)C[C@@H]2C)s1 [Example 74, N-(4-fluoro-5-(((2S,4R)-4-(furo[2,3-d]pyrimidin-4-yloxy)-2-methylpyrrolidin-1-yl)methyl)thiazol-2-yl)acetamide]",< 1 nM
6,"CC(=O)Nc1ncc(CN2C[C@H](Oc3ncc4c(n3)CCCC4)C[C@@H]2C)s1 [Example 10, N-(5-(((2S,4R)-2-methyl-4-((5,6,7,8-tetrahydroquinazolin-2-yl)oxy)pyrrolidin-1-yl)methyl)thiazol-2-yl)acetamide]",< 1 nM
7,"CC(=O)Nc1nc(F)c(CN2C[C@H](Oc3nncc4cc(F)ccc34)C[C@@H]2C)s1 [Example 133, N-(4-fluoro-5-(((2S,4R)-4-((6-fluorophthalazin-1-yl)oxy)-2-methylpyrrolidin-1-yl)methyl)thiazol-2-yl)acetamide]",< 1 nM
8,"CC(=O)Nc1nc(F)c(CN2C[C@H](Oc3ccc4ncoc4c3)C[C@@H]2C)s1 [Example 76, N-(5-(((2S,4R)-4-(benzo[d]oxazol-6-yloxy)-2-methylpyrrolidin-1-yl)methyl)-4-fluorothiazol-2-yl)acetamide]",< 1 nM
9,"CC(=O)Nc1ncc(CN2C[C@H](Oc3ccc4nnc(C(F)(F)F)n4n3)C[C@@H]2C)s1 [Example 18, N-(5-(((2S,4R)-2-methyl-4-((3-(trifluoromethyl)-[1,2,4]triazolo[4,3-b]pyridazin-6-yl)oxy)pyrrolidin-1-yl)methyl)thiazol-2-yl)acetamide]",< 1 nM
10,"CC(=O)Nc1ncc(CN2C[C@H](Oc3nccc4occc34)C[C@@H]2C)s1 [Example 22, N-(5-(((2S,4R)-4-(furo[3,2-c]pyridin-4-yloxy)-2-methylpyrrolidin-1-yl)methyl)thiazol-2-yl)acetamide]",2.1 nM
11,"CC(=O)Nc1nc(F)c(CN2C[C@H](Oc3cnc4nc(C)oc4c3)C[C@@H]2C)s1 [Example 169, N-(4-Fluoro-5-(((2S,4R)-2-methyl-4-((2-methyloxazolo[4,5-b]pyridin-6-yl)oxy)pyrrolidin-1-yl)methyl)thiazol-2-yl)acetamide]",< 1 nM

# Continued, values first:
row,IC50,SMILES
1,< 1 nM,"CC(=O)Nc1ncc(CN2C[C@H](Oc3nccc4nccn34)C[C@@H]2C)s1 [Example 97, N-(5-(((2S,4R)-4-(imidazo[1,2-c]pyrimidin-5-yloxy)-2-methylpyrrolidin-1-yl)methyl)thiazol-2-yl)acetamide]"
2,< 1 nM,"CC(=O)Nc1nc(F)c(CN2C[C@H](Oc3ncnn4cccc34)C[C@@H]2C)s1 [Example 106, N-(4-fluoro-5-(((2S,4R)-2-methyl-4-(pyrrolo[2,1-f][1,2,4]triazin-4-yloxy)pyrrolidin-1-yl)methyl)thiazol-2-yl)acetamide]"
3,< 1 nM,"CC(=O)Nc1nc(F)c(CN2C[C@H](Oc3cccc4nccn34)C[C@@H]2C)s1 [Example 64, N-(4-fluoro-5-(((2S,4R)-4-(imidazo[1,2-a]pyridin-5-yloxy)-2-methylpyrrolidin-1-yl)methyl)thiazol-2-yl)acetamide]"
4,< 1 nM,"CC(=O)Nc1ncc(CN2C[C@H](Oc3ccc4ccccc4n3)C[C@@H]2C)s1 [Example 8, N-(5-(((2S,4R)-2-methyl-4-(quinolin-2-yloxy)pyrrolidin-1-yl)methyl)thiazol-2-yl)acetamide]"
5,< 1 nM,"CC(=O)Nc1ncc(CN2C[C@H](Oc3ccc4ccn(C)c4n3)C[C@@H]2C)s1 [Example 162, N-(5-(((2S,4R)-2-methyl-4-((1-methyl-1H-pyrrolo[2,3-b]pyridin-6-yl)oxy)pyrrolidin-1-yl)methyl)thiazol-2-yl)acetamide]"
6,< 1 nM,"CC(=O)Nc1nc(F)c(CN2C[C@H](Oc3cn4nccc4cn3)C[C@@H]2C)s1 [Example 171, N-(4-fluoro-5-(((2S,4R)-2-methyl-4-(pyrazolo[1,5-a]pyrazin-6-yloxy)pyrrolidin-1-yl)methyl)thiazol-2-yl)acetamide]"
7,< 1 nM,"CC(=O)Nc1nc(F)c(CN2C[C@H](Oc3ccc4ncnn4c3C)C[C@@H]2C)s1 [Example 105, N-(4-fluoro-5-(((2S,4R)-2-methyl-4-((5-methyl-[1,2,4]triazolo[1,5-a]pyridin-6-yl)oxy)pyrrolidin-1-yl)methyl)thiazol-2-yl)acetamide]"
8,< 1 nM,"CC(=O)Nc1ncc(CN2C[C@H](Oc3ccc4occc4n3)C[C@@H]2C)s1 [Example 65, N-(5-(((2S,4R)-4-(furo[3,2-b]pyridin-5-yloxy)-2-methylpyrrolidin-1-yl)methyl)thiazol-2-yl)acetamide]"
9,< 1 nM,"CC(=O)Nc1nc(F)c(CN2C[C@H](Oc3cncc4nccn34)C[C@@H]2C)s1 [Example 100, N-(4-fluoro-5-(((2S,4R)-4-(imidazo[1,2-a]pyrazin-5-yloxy)-2-methylpyrrolidin-1-yl)methyl)thiazol-2-yl)acetamide]"
10,< 1 nM,"CC(=O)Nc1ncc(CN2C[C@H](Oc3nccc4ccsc34)C[C@@H]2C)s1 [Example 11, N-(5-(((2S,4R)-2-methyl-4-(thieno[2,3-c]pyridin-7-yloxy)pyrrolidin-1-yl)methyl)thiazol-2-yl)acetamide]"
11,< 1 nM,"CC(=O)Nc1nc(F)c(CN2C[C@H](Oc3ccc4ncnn4c3)C[C@@H]2C)s1 [Example 172, N-(5-(((2S,4R)-4-([1,2,4]triazolo[1,5-a]pyridin-6-yloxy)-2-methylpyrrolidin-1-yl)methyl)-4-fluorothiazol-2-yl)acetamide]"
12,< 1 nM,"CC(=O)Nc1ncc(CN2C[C@H](Oc3cc(C)nc4ccccc34)C[C@@H]2C)s1 [Example 13, N-(5-(((2S,4R)-2-methyl-4-((2-methylquinolin-4-yl)oxy)pyrrolidin-1-yl)methyl)thiazol-2-yl)acetamide]"
13,< 1 nM,"CC(=O)Nc1nc(F)c(CN2C[C@H](Oc3ncnc4c(F)cccc34)C[C@@H]2C)s1 [Example 122, N-(4-fluoro-5-(((2S,4R)-4-((8-fluoroquinazolin-4-yl)oxy)-2-methylpyrrolidin-1-yl)methyl)thiazol-2-yl)acetamide]"
14,< 1 nM,"CC(=O)Nc1ncc(CN2C[C@H](Oc3ccn4ccnc4c3)C[C@@H]2C)s1 [Example 42, N-(5-(((2S,4R)-4-(imidazo[1,2-a]pyridin-7-yloxy)-2-methylpyrrolidin-1-yl)methyl)thiazol-2-yl)acetamide]"
